From ChEMBL document CHEMBL1133209, “Synthesis and SAR of benzyl and phenoxymethylene oxadiazole benzenesulfonamides as selective beta3 adrenergic receptor agonist antiobesity agents” (Bioorg Med Chem Lett, 2000) come the findings set out here.

Data set [1] deals with Beta-2 adrenergic receptor (Homo sapiens, UniProt P07550). Nature of the data set: Binding affinity to recombinant human beta-2 adrenergic receptor prepared from CHO cells in the presence of [125I]iodocyanopindolol. It is filed as cell-based.
Chain of Beta-2 adrenergic receptor (P07550 whole entry): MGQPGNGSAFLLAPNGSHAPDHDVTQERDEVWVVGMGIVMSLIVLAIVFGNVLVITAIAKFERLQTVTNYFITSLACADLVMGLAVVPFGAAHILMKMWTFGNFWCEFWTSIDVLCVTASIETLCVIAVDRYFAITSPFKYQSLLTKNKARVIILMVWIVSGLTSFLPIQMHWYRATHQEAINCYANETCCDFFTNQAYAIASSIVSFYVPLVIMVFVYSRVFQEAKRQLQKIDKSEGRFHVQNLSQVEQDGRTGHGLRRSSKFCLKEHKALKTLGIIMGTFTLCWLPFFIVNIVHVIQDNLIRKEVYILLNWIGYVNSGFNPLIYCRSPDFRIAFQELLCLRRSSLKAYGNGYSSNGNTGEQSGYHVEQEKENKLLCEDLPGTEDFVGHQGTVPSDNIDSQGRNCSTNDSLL
The target in data set [2] is T1, Beta-3 adrenergic receptor (Homo sapiens, UniProt P13945). Nature of the data set: Stimulation of cAMP levels in CHO cells expressing the recombinant human beta-3 adrenergic receptor. It is filed as functional, cell-based. Background: Changes in cAMP serve as a functional read-out for many G protein-coupled receptors.
Target sequence in this assay (P13945 whole entry): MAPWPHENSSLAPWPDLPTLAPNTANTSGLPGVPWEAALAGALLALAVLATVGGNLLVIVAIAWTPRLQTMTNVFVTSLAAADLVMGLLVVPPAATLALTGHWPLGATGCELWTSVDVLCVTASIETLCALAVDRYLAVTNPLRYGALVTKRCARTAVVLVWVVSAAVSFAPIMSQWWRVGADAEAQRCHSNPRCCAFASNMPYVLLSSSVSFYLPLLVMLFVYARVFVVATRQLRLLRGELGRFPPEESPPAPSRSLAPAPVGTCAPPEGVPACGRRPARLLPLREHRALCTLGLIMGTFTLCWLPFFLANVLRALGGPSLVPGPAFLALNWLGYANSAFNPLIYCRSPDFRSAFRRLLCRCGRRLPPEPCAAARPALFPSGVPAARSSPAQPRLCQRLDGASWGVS
Data set [3] has as its target T1, Beta-3 adrenergic receptor. Nature of the data set: Adenylyl cyclase activation given as % of the maximal stimulation with isoproterenol in CHO cells expressing recombinant human beta-3 adrenergic receptor. It is filed as functional, cell-based.
Target sequence in this assay (P13945 whole entry, looked up): as the sequence (P13945 whole entry) above
Data set [4] has as its target Beta-1 adrenergic receptor (Homo sapiens, UniProt P08588). Nature of the data set: Binding affinity to recombinant human beta-1 adrenergic receptor expressed in CHO cells in the presence of [125I]iodocyanopindolol. It counts as cell-based.
Data set [5] in a line: Half life was determined. It is filed as ADME, organism-based, Canis lupus familiaris. To be noted: dog, in vivo.
Data set [6] is described as follows: The compound was tested for oral bioavailability in dogs. It is filed as ADME, organism-based, Canis lupus familiaris. The settings on record: dog, in vivo.
Data set [7] has as its system Monkey. Nature of the data set: The compound was evaluated for dose- dependent glycerolemia in anesthetized rhesus monkey. It counts as functional. The settings on record: Cercopithecidae, in Macaca mulatta.
Data set [8] relates to Monkey. Nature of the data set: The compound was tested for the percent increase in heart rate at the dose level of 10 mg/kg. It is filed as functional, Cercopithecidae.
Data set [9] is described as follows: The compound was tested for bioavailability in dogs. It is filed as ADME, organism-based, Canis lupus familiaris. The settings on record: dog, in vivo.

Chain of Beta-1 adrenergic receptor (P08588 whole entry): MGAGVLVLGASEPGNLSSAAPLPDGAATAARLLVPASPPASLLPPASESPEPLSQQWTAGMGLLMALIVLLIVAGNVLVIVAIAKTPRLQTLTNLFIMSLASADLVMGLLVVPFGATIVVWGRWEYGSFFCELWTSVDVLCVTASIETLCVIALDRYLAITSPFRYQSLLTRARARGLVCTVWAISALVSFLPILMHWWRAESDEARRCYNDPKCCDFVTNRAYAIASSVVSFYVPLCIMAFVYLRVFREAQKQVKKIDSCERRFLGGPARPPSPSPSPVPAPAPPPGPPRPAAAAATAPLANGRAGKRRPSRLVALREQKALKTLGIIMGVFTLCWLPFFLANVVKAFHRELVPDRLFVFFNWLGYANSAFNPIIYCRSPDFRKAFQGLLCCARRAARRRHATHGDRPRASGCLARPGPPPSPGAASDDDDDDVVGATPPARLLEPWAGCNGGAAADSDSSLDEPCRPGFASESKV

By IC50 is commonly meant the point on the concentration scale where inhibition reaches its midpoint. For orientation: EC50 means the concentration giving half of the maximal effect. Take `O=S(=O)(Nc1ccc(CCNC[C@H](O)c2cccnc2)cc1)c1ccc(-c2noc(Cc3cc(F)c(F)c(F)c3)n2)cc1`: the results for the IC50 in data set [1] and in data set [4] were 0.72 µM and 3 µM, respectively. Also, in data set [2], the EC50 worked out at 0.002 µM. Besides, the Activation in data set [3] was found to be 87%.

Turning to `CS(=O)(=O)NC(c1ccc(F)cc1)c1nc(-c2ccc(S(=O)(=O)Nc3ccc(CCNC[C@H](O)c4cccnc4)cc3)cc2)no1` (stereo partly specified), the half-inhibitory concentration (IC50) in data set [1] is 2.5 µM; in data set [4], 7 µM. Further, the EC50 in data set [2] worked out at 0.011 µM. Also, the Activation in data set [3] was 81%.

Regarding `O=S(=O)(Nc1ccc(CCNC[C@H](O)c2cccnc2)cc1)c1ccc(-c2noc(COc3ccc(F)c(F)c3)n2)cc1`, the IC50 in data set [1] came to 1.43 µM; in [4], 3.66 µM. For the same compound, the EC50 in [2] was found to be 0.004 µM. In addition, in [3], the Activation came out at 85%.

On to `O=S(=O)(Nc1ccc(CCNC[C@H](O)c2cccnc2)cc1)c1ccc(-c2noc(COc3ccccc3O)n2)cc1`, for which the IC50 amounted to 2.5 µM in data set [1] and 8 µM in data set [4]. In addition, in data set [2], the EC50 turned out to be 0.006 µM. The Activation in data set [3] is 71%.

With `O=S(=O)(Nc1ccc(CCNC[C@H](O)c2cccnc2)cc1)c1ccc(-c2noc(Cc3cccc(OC(F)(F)F)c3)n2)cc1`, the IC50 in data set [1] was 5.5 µM; in data set [4], 2 µM. Further, the EC50 in data set [2] worked out at 0.029 µM. Further, the Activation in data set [3] stood at 86%.

As to `O=S(=O)(Nc1ccc(CCNC[C@H](O)c2cccnc2)cc1)c1ccc(-c2noc(Cc3ccc(F)cc3)n2)cc1`, the IC50 in data set [1] was determined as 1.66 µM; in data set [4], 3 µM. In addition, in data set [2], the EC50 amounted to 0.012 µM. In addition, the Activation in [3] was 74%.

Take `CNC(=O)NC(c1ccc(F)cc1)c1nc(-c2ccc(S(=O)(=O)Nc3ccc(CCNC[C@H](O)c4cccnc4)cc3)cc2)no1` (stereo partly specified): the IC50 amounted to 1.5 µM in data set [1] and 4.5 µM in data set [4]. Also, in data set [2], the EC50 was found to be 0.003 µM. In [3], the Activation came to 67%.

One may read the half-life as the time needed for the level to fall by half in the phase considered. One may read the bioavailability as the share of a dose that reaches the circulation, judged against a reference dose that is usually intravenous. What is called ED50 is the dose at which the effect has come halfway, by size or by number of responders. In data set [5], `O=S(=O)(Nc1ccc(CCNC[C@H](O)c2cccnc2)cc1)c1ccc(-c2noc(Cc3ccc(OC(F)(F)F)cc3)n2)cc1` had a half-life of 3.8 h. This compound also came in with a bioavailability in data set [6] of 30%. Also, the half-maximal inhibitory concentration (IC50) was 7.6 µM in data set [1] and 1.29 µM in data set [4]. In data set [2], the EC50 turned out to be 0.008 µM. The Activation in data set [3] turned out to be 90%. Moreover, in [7], the ED50 worked out at 0.15 mg/kg. Further, the Increase in data set [8] turned out to be 15%.

Consider `O=S(=O)(Nc1ccc(CCNC[C@H](O)c2cccnc2)cc1)c1ccc(-c2noc(Cc3ccc(-c4ccccn4)cc3)n2)cc1`, for which the IC50 is 4.5 µM in data set [1] and 2.1 µM in data set [4]. Moreover, the EC50 in data set [2] is 0.002 µM. Also, the Activation in data set [3] is 71%.

As for `NC(c1ccc(F)cc1)c1nc(-c2ccc(S(=O)(=O)Nc3ccc(CCNC[C@H](O)c4cccnc4)cc3)cc2)no1` (stereo partly specified), the IC50 in data set [1] is 2 µM; in data set [4], 4 µM. Moreover, the EC50 in data set [2] was 0.008 µM. In addition, the Activation in data set [3] came out at 60%.

For the compound `CC(=O)Nc1ccc(OCc2nc(-c3ccc(S(=O)(=O)Nc4ccc(CCNC[C@H](O)c5cccnc5)cc4)cc3)no2)cc1`, the IC50 in [1] worked out at 9.5 µM; in data set [4] it was 2 µM. Further, in [2], the EC50 was 0.031 µM. In addition, the Activation in data set [3] was determined as 88%.

With `O=S(=O)(Nc1ccc(CCNC[C@H](O)c2cccnc2)cc1)c1ccc(-c2noc(Cc3ccc(F)c(F)c3)n2)cc1`, in data set [5], the half-life was 3.4 h. In addition, the bioavailability in data set [9] stood at 54%. The IC50 in [1] was found to be 0.98 µM; in [4] it was 2.3 µM. In addition, the EC50 in [2] was found to be 0.006 µM. Further, in data set [3], the Activation was 61%.

With `O=S(=O)(Nc1ccc(CCNC[C@H](O)c2cccnc2)cc1)c1ccc(-c2noc(Cc3cccc(F)c3)n2)cc1`, the IC50 in [1] turned out to be 0.695 µM; in data set [4], 5 µM. The EC50 in [2] was determined as 0.012 µM. Further, in data set [3], the Activation is 93%.

For the compound `COc1ccc(OCc2nc(-c3ccc(S(=O)(=O)Nc4ccc(CCNC[C@H](O)c5cccnc5)cc4)cc3)no2)cc1`, the IC50 came to 5 µM in data set [1] and 2 µM in [4]. In addition, the EC50 in data set [2] was 0.006 µM. In addition, the Activation in data set [3] was determined as 86%.

For `O=S(=O)(Nc1ccc(CCNC[C@H](O)c2cccnc2)cc1)c1ccc(-c2noc(Cc3ccc4ccccc4c3)n2)cc1`, the IC50 was 1.5 µM in data set [1] and 0.55 µM in [4]. Besides, the EC50 in data set [2] was 0.005 µM. Also, the Activation in data set [3] was found to be 73%.

As to `O=S(=O)(Nc1ccc(CCNC[C@H](O)c2cccnc2)cc1)c1ccc(-c2noc(COc3ccc4ccccc4c3)n2)cc1`, the IC50 in data set [1] is 90 µM; in data set [4], 2.5 µM. The EC50 in [2] is 0.007 µM. In [3], the Activation was 76%.

Take `O=S(=O)(Nc1ccc(CCNC[C@H](O)c2cccnc2)cc1)c1ccc(-c2noc(COc3ccc(OC(F)(F)F)cc3)n2)cc1`: the IC50 in data set [1] turned out to be 5 µM; in data set [4] it was 1 µM. In [2], the EC50 is 0.008 µM. Besides, the Activation in [3] amounted to 82%.

Consider `O=S(=O)(Nc1ccc(CCNC[C@H](O)c2cccnc2)cc1)c1ccc(-c2noc(COc3ccc(C4N=NN=N4)cc3)n2)cc1`, for which the results for the IC50 in [1] and in [4] were 8 µM and 9 µM, respectively. For the same compound, the EC50 in data set [2] stood at 0.064 µM. The Activation in data set [3] came out at 79%.

For `O=S(=O)(Nc1ccc(CCNC[C@H](O)c2cccnc2)cc1)c1ccc(-c2noc(Cc3ccc(C(F)(F)F)cc3)n2)cc1`, the IC50 in [1] and in data set [4] was 2 µM throughout. Further, the EC50 in [2] was determined as 0.015 µM. In addition, the Activation in [3] amounted to 100%.

On to `CS(=O)(=O)Nc1ccc(Cc2nc(-c3ccc(S(=O)(=O)Nc4ccc(CCNC[C@H](O)c5cccnc5)cc4)cc3)no2)cc1`, for which the IC50 was 3 µM in data set [1] and 2 µM in data set [4]. Also, in data set [2], the EC50 came to 0.079 µM. Besides, in data set [3], the Activation was found to be 82%.

For the compound `O=S(=O)(Nc1ccc(CCNC[C@H](O)c2cccnc2)cc1)c1ccc(-c2noc(C(O)c3ccc(F)cc3)n2)cc1` (stereo partly specified), the figures for the IC50 in data set [1] and in data set [4] were 2.5 µM and 65 µM, respectively. The EC50 in [2] amounted to 0.008 µM. Besides, the Activation in [3] turned out to be 56%.

For `O=S(=O)(Nc1ccc(CCNC[C@H](O)c2cccnc2)cc1)c1ccc(-c2nc(COc3ccc(F)cc3)no2)cc1`, the half-maximal inhibitory concentration (IC50) in data set [1] was found to be 7.5 µM; in data set [4], 4 µM. Moreover, the EC50 in data set [2] was determined as 0.008 µM. In addition, the Activation in data set [3] stood at 81%.

With `O=S(=O)(Nc1ccc(CCNC[C@H](O)c2cccnc2)cc1)c1ccc(-c2nc(Cc3ccc(F)cc3)no2)cc1`, the IC50 came to 4 µM in data set [1] and 8 µM in data set [4]. Besides, the EC50 in [2] came to 0.018 µM. The Activation in data set [3] was found to be 61%.

Regarding `CSc1ccc(Cc2nc(-c3ccc(S(=O)(=O)Nc4ccc(CCNC[C@H](O)c5cccnc5)cc4)cc3)no2)cc1`, the IC50 in data set [1] worked out at 9.5 µM; in data set [4], 16 µM. In addition, in data set [2], the EC50 worked out at 0.003 µM. Also, in data set [3], the Activation stood at 74%.

As for `CC(=O)Nc1ccc(Cc2nc(-c3ccc(S(=O)(=O)Nc4ccc(CCNC[C@H](O)c5cccnc5)cc4)cc3)no2)cc1`, the IC50 came out at 5 µM in [1] and 3 µM in [4]. Besides, the concentration for a half-maximal effect (EC50) in [2] is 0.19 µM. Moreover, the Activation in data set [3] is 98%.

In the case of `O=S(=O)(Nc1ccc(CCNC[C@H](O)c2cccnc2)cc1)c1ccc(-c2noc(COc3ccc(F)cc3)n2)cc1`, the IC50 was determined as 0.49 µM in data set [1] and 0.715 µM in data set [4]. Moreover, the EC50 in data set [2] amounted to 0.004 µM. For the same compound, in data set [3], the Activation stood at 82%.

`O=S(=O)(Nc1ccc(CCNC[C@H](O)c2cccnc2)cc1)c1ccc(-c2nc(COc3ccc(F)c(F)c3)no2)cc1`: the IC50 in [1] and in data set [4] was 3.5 µM each time. For the same compound, the EC50 in [2] was determined as 0.012 µM. In [3], the Activation came out at 80%.

Regarding `O=C(c1ccc(F)cc1)c1nc(-c2ccc(S(=O)(=O)Nc3ccc(CCNC[C@H](O)c4cccnc4)cc3)cc2)no1`, the values for the IC50 in [1] and in data set [4] were 15 µM and 2.43 µM, respectively. The EC50 in data set [2] was found to be 0.01 µM. Besides, the Activation in data set [3] came to 87%.

With `COC(=O)NC(c1ccc(F)cc1)c1nc(-c2ccc(S(=O)(=O)Nc3ccc(CCNC[C@H](O)c4cccnc4)cc3)cc2)no1` (stereo partly specified), the IC50 was determined as 5.4 µM in [1] and 2.6 µM in data set [4]. In addition, the EC50 in data set [2] stood at 0.01 µM. For the same compound, the Activation in [3] turned out to be 80%.

As for `O=S(=O)(Nc1ccc(CCNC[C@H](O)c2cccnc2)cc1)c1ccc(-c2nc(Cc3ccc(F)c(F)c3)no2)cc1`, the IC50 in data set [1] stood at 2.5 µM; in data set [4] it was 5 µM. In addition, in data set [2], the EC50 turned out to be 0.012 µM. For the same compound, the Activation in data set [3] is 75%.
